Data taken from patent publication US20110150767A1, “ALPHA-SUBSTITUTED AND ALPHA-UNSUBSTITUTED AROMATIC AMINO ACID DERIVATIVES AND COMPOSITIONS THEREOF FOR USE TO TREAT, DIAGNOSE, OR MONITOR A MEDICAL CONDITION” (priority 2009, published 2011).

Columns and labels:
[1] = target: T1, human L-type amino acid transporter 2 (LAT2; S2-hLAT2 cells) (Homo sapiens, UniProt Q9UHI5); assay: Inhibition of L-[14C]leucine uptake in S2-LAT2 cells; format: cell-based; conditions: inhibition of 1.0 μM L-[14C]leucine uptake, 1.0 min, 37° C., NI = no inhibition at 100 μM
T1 construct: expressed in transfected cells; host or cells: S2 cells (S2-hLAT2 / S2-LAT2); mammalian cell line described in Morimoto et al., J Pharmacol Sci 2008, 108, 505-516
T1 sequence (Q9UHI5 1-535): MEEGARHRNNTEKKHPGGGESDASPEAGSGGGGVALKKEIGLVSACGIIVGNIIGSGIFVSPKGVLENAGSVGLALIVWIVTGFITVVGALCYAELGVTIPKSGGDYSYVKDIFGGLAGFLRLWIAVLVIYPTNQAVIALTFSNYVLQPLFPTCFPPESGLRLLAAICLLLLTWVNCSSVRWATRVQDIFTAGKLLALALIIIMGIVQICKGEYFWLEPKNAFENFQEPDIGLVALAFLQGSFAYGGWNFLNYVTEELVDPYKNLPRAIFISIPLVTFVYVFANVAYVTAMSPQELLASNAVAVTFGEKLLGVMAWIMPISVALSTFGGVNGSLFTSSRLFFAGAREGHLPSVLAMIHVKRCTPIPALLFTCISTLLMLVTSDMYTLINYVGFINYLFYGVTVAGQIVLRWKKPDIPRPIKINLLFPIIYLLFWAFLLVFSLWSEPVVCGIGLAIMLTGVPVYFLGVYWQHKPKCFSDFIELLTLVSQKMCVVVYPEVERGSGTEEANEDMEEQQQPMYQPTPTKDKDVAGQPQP
T1 sequence (P08195 1-529 partner): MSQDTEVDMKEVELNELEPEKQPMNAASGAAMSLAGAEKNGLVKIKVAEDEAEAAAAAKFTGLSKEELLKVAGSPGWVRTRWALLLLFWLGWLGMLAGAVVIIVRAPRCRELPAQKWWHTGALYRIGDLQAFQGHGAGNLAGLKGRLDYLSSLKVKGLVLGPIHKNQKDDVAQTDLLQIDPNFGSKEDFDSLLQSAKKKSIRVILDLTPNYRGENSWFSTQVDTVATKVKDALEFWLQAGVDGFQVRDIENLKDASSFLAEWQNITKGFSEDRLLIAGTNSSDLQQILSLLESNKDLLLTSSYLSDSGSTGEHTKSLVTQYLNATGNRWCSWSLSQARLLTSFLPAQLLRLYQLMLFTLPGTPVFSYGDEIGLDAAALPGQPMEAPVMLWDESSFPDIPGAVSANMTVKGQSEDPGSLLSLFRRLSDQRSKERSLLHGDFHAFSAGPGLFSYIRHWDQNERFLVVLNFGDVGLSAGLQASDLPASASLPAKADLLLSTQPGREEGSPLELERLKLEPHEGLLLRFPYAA
Protocol: (§1) The establishment and characterization of mammalian cell lines expressing human L-type amino acid transporterss (i.e. S2-hLAT1 and S2-hLAT2) has been previously described (Morimoto et al., Journal of Pharmacological Sciences, 2008, 108, 505-516).
(§2) General test procedures are as follows: All test compounds were dissolved in dimethyl sulfoxide (DMSO) to prepare stock solutions at the concentrations of 0.05, 0.5, 5.0 and 50 mM; next, these stock solutions were used and diluted with uptake solution to make final test concentrations of 0.10, 1.00, 10.0 and 100 μM, respectively. Therefore, all compounds used for uptake experiment were in uptake solution containing 0.2% DMSO; experiments are performed in triplicate for each concentration. For control uptake, only DMSO was added into the uptake solution to a final concentration of 0.2%.
(§3) S2-LAT1 and S2-LAT2 cells were seeded (1.3×10^5 cells/well) into 24-well plates and cultured at 33° C. (5% CO2) for 2-3 days until confluent (90%-100% confluence). Uptake experiments were performed at 37° C. The culture medium was removed and washed 3 times with uptake solution (37° C.; Hank's Na^+ free buffer consisting of 125 mM choline chloride, 4.8 mM KCl, 1.3 mM CaCl2, 1.2 mM MgCl2, 25.0 mM HEPES, and 5.0 mM Tris, pH 7.4, supplemented with D-glucose (5.6 mM). The cells were equilibrated in uptake solution (300 μL; 37° C.) for 12 min. The equilibrated solution was removed and uptake solution containing radio-labeled compound (1.0 μM L-[^14C] Leucine) with or without test compound (300 μL) was added to the cells (1.0 min). The test solution was removed and the cells washed 3 times with ice-cold uptake solution. The cells are then solubilized with 0.1N NaOH (0.5 mL) and transferred to scintillation vials. Liquid scintillation fluid (3.0 mL; aquasol-2) was added, mixed and substrate accumulation was measured by counting radioactivity via liquid scintillation counting (LSC; LSC6100, Aloka, Tokyo). The uptake value and % of inhibition were calculated to afford IC50 values.

[2] = target: T2, human L-type amino acid transporter 1 (LAT1; S2-hLAT1 cells) (Homo sapiens, UniProt Q01650); assay: Inhibition of L-[14C]leucine uptake in S2-LAT1 cells; format: cell-based; conditions: inhibition of 1.0 μM L-[14C]leucine uptake, 1.0 min, 37° C., NI = no inhibition at 100 μM
T2 construct: expressed in transfected cells; host or cells: S2 cells (S2-hLAT1 / S2-LAT1); mammalian cell line described in Morimoto et al., J Pharmacol Sci 2008, 108, 505-516
T2 sequence (Q01650 whole entry, one chain of several): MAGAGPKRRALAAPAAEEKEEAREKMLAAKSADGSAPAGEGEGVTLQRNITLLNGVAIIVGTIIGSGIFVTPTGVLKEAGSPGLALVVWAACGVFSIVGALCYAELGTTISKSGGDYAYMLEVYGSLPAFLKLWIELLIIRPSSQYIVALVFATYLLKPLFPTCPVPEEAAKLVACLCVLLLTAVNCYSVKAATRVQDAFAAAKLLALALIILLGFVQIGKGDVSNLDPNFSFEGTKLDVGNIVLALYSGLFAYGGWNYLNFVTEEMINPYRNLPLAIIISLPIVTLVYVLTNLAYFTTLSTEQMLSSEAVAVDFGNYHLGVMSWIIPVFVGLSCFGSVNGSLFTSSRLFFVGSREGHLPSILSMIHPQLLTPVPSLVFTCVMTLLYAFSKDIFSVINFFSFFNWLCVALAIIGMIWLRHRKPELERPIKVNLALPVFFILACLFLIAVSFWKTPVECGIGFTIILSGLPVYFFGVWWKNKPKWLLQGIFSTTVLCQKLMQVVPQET
Protocol: as §1, §2, §3

SMILES | IC50 [1] [µM] | IC50 [2] [µM]
CC(N)(Cc1cc(Cl)c(OCc2ccc3c(c2)OCO3)c(Cl)c1)C(=O)O (racemic) [compound 144] | > 100 | > 100
CC(N)(Cc1cc(Cl)c(OCc2ccc(C(F)(F)F)cc2)c(Cl)c1)C(=O)O (racemic) [compound 145] | > 100 | 
COc1ccc(COc2c(Cl)cc(CC(C)(N)C(=O)O)cc2Cl)cc1 (racemic) [compound 146] | 16.4 | 6.7
COc1cccc(COc2c(Cl)cc(CC(C)(N)C(=O)O)cc2Cl)c1 (racemic) [compound 147] | > 100 | > 100
COc1ccccc1COc1c(Cl)cc(CC(C)(N)C(=O)O)cc1Cl (racemic) [compound 148] | > 100 | > 100
COc1cccc(COc2c(Cl)cc(CC(C)(N)C(=O)O)cc2Cl)c1OC (racemic) [compound 149] | > 100 | > 100
COc1ccc(COc2c(Cl)cc(CC(C)(N)C(=O)O)cc2Cl)cc1OC (racemic) [compound 150] | > 100 | > 100
COc1cc(COc2c(Cl)cc(CC(C)(N)C(=O)O)cc2Cl)cc(OC)c1OC (racemic) [compound 151] | > 100 | > 100
CC(N)(Cc1cc(Cl)c(OCc2ccncc2)c(Cl)c1)C(=O)O (racemic) [compound 152] | > 100 | > 100
N[C@@H](Cc1cc(I)c(OCCc2ccc(OC(F)(F)F)cc2)c(I)c1)C(=O)O [compound 33] | > 100 | > 100
N[C@@H](Cc1cc(I)c(OCC(=O)c2ccccc2)c(I)c1)C(=O)O [compound 34] | 47.9 | 11.9
COC(COc1c(I)cc(C[C@H](N)C(=O)O)cc1I)c1ccccc1 (stereo partly shown) [compound 35] | > 100 | 8.8
N[C@@H](Cc1cc(I)c(OCCc2ccc([N+](=O)[O-])cc2)c(I)c1)C(=O)O [compound 36] | > 100 | 28.2
N[C@@H](Cc1cc(I)c(OCc2ccc([N+](=O)[O-])cc2)c(I)c1)C(=O)O [compound 37] | 8.2 | 11.5
COc1ccc(COc2c(I)cc(C[C@H](N)C(=O)O)cc2I)c(OC)c1 [compound 41] | > 100 | 5
COc1cc(Cl)ccc1COc1c(I)cc(C[C@H](N)C(=O)O)cc1I [compound 42] | > 100 | 17.7
COc1ccc(COc2c(I)cc(C[C@H](N)C(=O)O)cc2I)c(OC)c1OC [compound 43] | > 100 | 23.6
COc1ccc(COc2c(I)cc(C[C@H](N)C(=O)O)cc2I)c(C)c1C [compound 44] | > 100 | 7.7
COc1cc(COc2c(I)cc(C[C@H](N)C(=O)O)cc2I)cc(OC)c1OC [compound 45] | > 100 | 15
CCOc1ccc(COc2c(I)cc(C[C@H](N)C(=O)O)cc2I)c(OCC)c1 [compound 48] | > 100 | 17.2
CCOc1ccc(COc2c(I)cc(C[C@H](N)C(=O)O)cc2I)cc1OCC [compound 49] | > 100 | 5.5
N[C@@H](Cc1cc(I)c(OCc2ccc3c(c2)OCO3)c(I)c1)C(=O)O [compound 50] | > 100 | 24.1
N[C@@H](Cc1cc(I)c(OCc2ccc(Cl)cc2)c(I)c1)C(=O)O [compound 51] | 29.5 | 10.4

SMILES | IC50 [1] [µM] | IC50 [2] [µM]
COc1ccc(CCOc2c(Br)cc(C[C@H](N)C(=O)O)cc2Br)cc1 [compound 52] | > 100 | 6.8
COc1cccc(CCOc2c(Br)cc(C[C@H](N)C(=O)O)cc2Br)c1 [compound 53] | > 100 | 6.3
COc1ccccc1CCOc1c(Br)cc(C[C@H](N)C(=O)O)cc1Br [compound 54] | > 100 | 5.4
COc1ccccc1COc1c(Br)cc(C[C@H](N)C(=O)O)cc1Br [compound 55] | > 100 | 10.2
COc1cccc(COc2c(Br)cc(C[C@H](N)C(=O)O)cc2Br)c1 [compound 56] | > 100 | 67.1
COc1ccc(COc2c(Br)cc(C[C@H](N)C(=O)O)cc2Br)cc1 [compound 57] | 86.5 | 16.4
N[C@@H](Cc1cc(Br)c(OCCc2ccc(C(F)(F)F)cc2)c(Br)c1)C(=O)O [compound 58] | > 100 | 43.2
N[C@@H](Cc1cc(Br)c(OCCc2cccc(C(F)(F)F)c2)c(Br)c1)C(=O)O [compound 59] | > 100 | 31.8
N[C@@H](Cc1cc(Br)c(OCCc2ccccc2C(F)(F)F)c(Br)c1)C(=O)O [compound 60] | > 100 | > 100
N[C@@H](Cc1cc(Br)c(OCc2ccccc2C(F)(F)F)c(Br)c1)C(=O)O [compound 61] | > 100 | > 100
N[C@@H](Cc1cc(Cl)c(OCCc2ccccc2)c(Cl)c1)C(=O)O [compound 122] | > 100 | 50.7
COc1ccc(COc2c(Cl)cc(C[C@H](N)C(=O)O)cc2Cl)cc1OC [compound 129] | > 100 | 17.8
N[C@@H](Cc1cc(Cl)c(OCc2ccc3c(c2)OCO3)c(Cl)c1)C(=O)O [compound 130] | 27.3 | 4.2
COc1ccc(COc2c(Cl)cc(C[C@H](N)C(=O)O)cc2Cl)cc1[N+](=O)[O-] [compound 131] | 126 | 8.4
COc1cccc(COc2c(Cl)cc(C[C@H](N)C(=O)O)cc2Cl)c1OC [compound 132] | > 100 | 28.2
COc1ccc(COc2c(Cl)cc(C[C@H](N)C(=O)O)cc2Cl)c(OC)c1 [compound 133] | 5.5 | 0.8
COc1cc(Cl)ccc1COc1c(Cl)cc(C[C@H](N)C(=O)O)cc1Cl [compound 134] | > 100 | 4.4
COc1ccc(COc2c(Cl)cc(C[C@H](N)C(=O)O)cc2Cl)c(OC)n1 [compound 135] | 32.5 | 2.4
COc1ccc(COc2c(Cl)cc(C[C@H](N)C(=O)O)cc2Cl)c(OC)c1OC [compound 136] | > 100 | 8.1
COc1ccc(COc2c(Cl)cc(C[C@H](N)C(=O)O)cc2Cl)c(C)c1C [compound 137] | > 100 | 3.5
COc1cc(OC)c(OC)cc1COc1c(Cl)cc(C[C@H](N)C(=O)O)cc1Cl [compound 138] | > 100 | 29.2
CCOc1cc(COc2c(Cl)cc(C[C@H](N)C(=O)O)cc2Cl)cc(OCC)c1OCC [compound 139] | > 100 | 1.2
CCOc1ccc(COc2c(Cl)cc(C[C@H](N)C(=O)O)cc2Cl)c(OCC)c1 [compound 140] | > 100 | 2.2
